These results are taken from paper PMC11338861, “Assessment of the potential risk of oteseconazole and two other tetrazole antifungals to inhibit adrenal steroidogenesis and peripheral metabolism of corticosteroids” (Frontiers in Pharmacology, 2024).

In one experiment the target is T1, CYP11B1 (Homo sapiens, UniProt P15538).
T1 sequence (P15538 25-503): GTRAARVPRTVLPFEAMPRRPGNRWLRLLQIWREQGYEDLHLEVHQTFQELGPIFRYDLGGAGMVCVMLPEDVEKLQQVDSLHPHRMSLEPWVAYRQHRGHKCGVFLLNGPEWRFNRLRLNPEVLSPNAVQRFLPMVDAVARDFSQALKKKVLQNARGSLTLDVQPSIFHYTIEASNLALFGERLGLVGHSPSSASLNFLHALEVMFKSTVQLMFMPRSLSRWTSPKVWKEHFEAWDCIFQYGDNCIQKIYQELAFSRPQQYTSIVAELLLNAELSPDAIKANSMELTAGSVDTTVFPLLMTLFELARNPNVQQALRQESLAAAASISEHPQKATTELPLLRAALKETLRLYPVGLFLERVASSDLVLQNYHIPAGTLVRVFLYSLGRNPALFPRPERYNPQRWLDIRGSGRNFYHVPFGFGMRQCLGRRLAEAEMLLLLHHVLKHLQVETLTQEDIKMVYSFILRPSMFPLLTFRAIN
Briefly: mitochondrial fraction of V79-CYP11B1 cells, 11-DOC to corticosterone, UHPLC-MS/MS. In kind it is cell-based.

For the next experiment, the target named is T2, CYP11A1 (Homo sapiens, UniProt P05108).
T2 sequence (P05108 40-521): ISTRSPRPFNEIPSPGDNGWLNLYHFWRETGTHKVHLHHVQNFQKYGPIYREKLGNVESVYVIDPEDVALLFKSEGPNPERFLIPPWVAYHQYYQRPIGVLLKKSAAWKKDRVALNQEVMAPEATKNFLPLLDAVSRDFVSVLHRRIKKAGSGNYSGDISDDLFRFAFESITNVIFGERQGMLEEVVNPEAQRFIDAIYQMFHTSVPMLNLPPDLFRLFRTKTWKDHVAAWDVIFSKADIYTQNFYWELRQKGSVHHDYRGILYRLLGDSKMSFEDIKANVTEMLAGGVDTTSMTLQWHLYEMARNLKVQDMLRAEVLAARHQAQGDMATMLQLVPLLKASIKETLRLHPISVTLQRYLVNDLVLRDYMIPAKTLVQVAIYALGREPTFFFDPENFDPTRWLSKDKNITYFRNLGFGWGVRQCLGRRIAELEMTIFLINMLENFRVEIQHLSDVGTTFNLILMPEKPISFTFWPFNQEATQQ
T2 sequence (P10109 61-184 partner): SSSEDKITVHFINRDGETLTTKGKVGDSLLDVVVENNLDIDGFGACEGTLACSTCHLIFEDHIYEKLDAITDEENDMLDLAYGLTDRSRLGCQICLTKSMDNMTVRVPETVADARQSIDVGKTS
Briefly: mitochondrial fraction of transfected V79-4 cells, pregnenolone ELISA. It is filed as cell-based. (In general: In an ELISA, binding on a coated surface is turned into a signal by an enzyme label.)

The next experiment addresses T3, CYP17A1 (Homo sapiens, UniProt P05093).
T3 sequence (P05093 1-508): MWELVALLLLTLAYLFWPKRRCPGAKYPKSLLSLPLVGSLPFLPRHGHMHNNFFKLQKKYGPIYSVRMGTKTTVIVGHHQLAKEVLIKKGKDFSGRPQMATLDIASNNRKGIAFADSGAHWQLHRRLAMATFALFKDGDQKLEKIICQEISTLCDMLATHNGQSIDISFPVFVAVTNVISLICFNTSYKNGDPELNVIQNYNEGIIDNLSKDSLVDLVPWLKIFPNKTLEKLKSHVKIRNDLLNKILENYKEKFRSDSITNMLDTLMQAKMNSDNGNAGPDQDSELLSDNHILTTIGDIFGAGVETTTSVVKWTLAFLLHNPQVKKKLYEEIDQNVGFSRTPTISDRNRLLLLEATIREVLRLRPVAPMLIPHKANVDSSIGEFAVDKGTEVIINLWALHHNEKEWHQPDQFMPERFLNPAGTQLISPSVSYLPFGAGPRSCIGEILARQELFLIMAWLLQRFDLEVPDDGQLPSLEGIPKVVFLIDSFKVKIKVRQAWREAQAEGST
T3 sequence (P16435 2-677 partner): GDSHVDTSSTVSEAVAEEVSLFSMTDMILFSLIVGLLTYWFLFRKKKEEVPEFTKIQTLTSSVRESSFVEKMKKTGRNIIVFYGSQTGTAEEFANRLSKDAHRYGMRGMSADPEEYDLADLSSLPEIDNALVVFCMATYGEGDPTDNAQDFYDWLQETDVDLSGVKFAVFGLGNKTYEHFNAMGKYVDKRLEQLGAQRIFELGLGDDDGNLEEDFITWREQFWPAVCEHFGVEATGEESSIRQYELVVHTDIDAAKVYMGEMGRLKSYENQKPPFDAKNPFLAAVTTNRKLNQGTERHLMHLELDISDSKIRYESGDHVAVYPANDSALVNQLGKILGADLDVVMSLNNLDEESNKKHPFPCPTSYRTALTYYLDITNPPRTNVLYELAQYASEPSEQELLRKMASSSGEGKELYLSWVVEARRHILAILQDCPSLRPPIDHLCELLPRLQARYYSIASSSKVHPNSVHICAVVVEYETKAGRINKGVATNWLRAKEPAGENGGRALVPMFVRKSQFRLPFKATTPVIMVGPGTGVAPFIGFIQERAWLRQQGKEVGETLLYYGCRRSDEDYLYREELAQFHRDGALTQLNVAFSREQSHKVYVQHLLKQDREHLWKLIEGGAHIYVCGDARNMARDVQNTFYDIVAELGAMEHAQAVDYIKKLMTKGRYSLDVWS
The experiment is described as follows: […]α-hydroxylase activity, microsomes of transfected COS-1 cells, radiolabeled progesterone, TLC ([…],20-lyase IC50 […]). In kind it is biochemical.

A further experiment concerns the target T4, CYP21A2 (Homo sapiens, UniProt P08686).
T4 sequence (P08686 1-495): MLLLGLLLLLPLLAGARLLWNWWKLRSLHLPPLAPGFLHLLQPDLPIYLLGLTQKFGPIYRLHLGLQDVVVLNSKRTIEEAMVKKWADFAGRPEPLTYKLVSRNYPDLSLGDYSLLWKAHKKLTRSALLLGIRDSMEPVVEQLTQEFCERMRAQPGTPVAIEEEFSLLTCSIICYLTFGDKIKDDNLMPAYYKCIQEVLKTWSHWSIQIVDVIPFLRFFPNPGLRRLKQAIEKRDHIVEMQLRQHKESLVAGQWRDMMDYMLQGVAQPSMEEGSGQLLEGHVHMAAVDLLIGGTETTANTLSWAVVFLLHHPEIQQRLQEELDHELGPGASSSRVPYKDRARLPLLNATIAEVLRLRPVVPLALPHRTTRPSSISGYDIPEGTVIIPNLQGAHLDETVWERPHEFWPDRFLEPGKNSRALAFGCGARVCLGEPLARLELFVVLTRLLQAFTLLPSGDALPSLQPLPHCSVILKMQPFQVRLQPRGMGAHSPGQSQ
T4 sequence (P16435 2-677 partner): T3 sequence (P16435 2-677 partner)
Briefly: cell-free activity assay, microsomes of transfected COS-1 cells, progesterone to 11-DOC. In kind it is biochemical.

As usually defined, the inhibition is the drop in the measured response relative to a control, in per cent. In general, IC50 refers to the point on the concentration scale where inhibition reaches its midpoint. A lower IC50 goes with inhibition by little substance.

For `CC(=O)N1CCN(c2ccc(OC[C@H]3CO[C@](Cn4ccnc4)(c4ccc(Cl)cc4Cl)O3)cc2)CC1` (racemic) [ketoconazole, reference compound], the “mitochondrial fraction of V79-CYP11B1 cells, 11-DOC to corticosterone, UHPLC-MS/” value at CYP11B1 is listed as “measuring the conversion of 11-DOC to corticosterone, with ketoconazole serving as positive control”. Further, at CYP11A1, the inhibition at 10 µM is around 55%.

`O[C@@](Cn1cnnn1)(c1ccc(F)cc1F)C(F)(F)c1ccc(-c2ccc(OCC(F)(F)F)cc2)cn1` [oteseconazole]: the values for the IC50 at CYP17A1 and at CYP21A2 were 13.2 ± 3.9 µM and 13.8 ± 1.9 µM, respectively. The molecule further showed an inhibition at 10 µM against CYP11A1 of around 35%.

Molecule `O[C@@](Cn1cnnn1)(c1ccc(F)cc1F)C(F)(F)c1ccc(-c2ccc(OC(F)(F)F)cc2)cn1` [quilseconazole] gave an inhibition at 10 µM at CYP11A1 of around 45%.
